In patent US7429599B2, “Methods for treating or preventing an inflammatory or metabolic condition or inhibiting JNK” (Signal Pharmaceuticals, LLC, priority 2000, dated 2008):

Target: T1, His6-JNK2 (Homo sapiens, UniProt P45984)
T1 construct: His6 (N)
Test: JNK2 Assay (c-Jun phosphorylation, 32P-ATP filter plate)
Assay type: biochemical
Conditions: c-Jun phosphorylation reduced to 50% of control; GST-c-Jun(1-79), 11 μM ATP; read-out: IC50 value in the JNK2 Assay
Description: To 10 μL of the test compound in 20%/DMSO/80% dilutien buffer consisting of 20 mM HELPS (pH 7.6), 0.1 mM; EDTA, 2.5 mM magnesium chloride, 0.004% Triton×100, 2 μg/mL leupeptin, 20 mM β-glycerolphosphate, 0.1 mM sodium vanadate, and 2 mM DTT in water is added 30 μL of 50 ng His6-JNK2 in the same dilution buffer. The mixture is preincubated for 30 minutes at room temperature. Sixty microliter of 10 μg GST-c-Jun(1-79) in assay buffer consisting of 20 mM HEPES (pH 7.6), 50 mM sodium chloride, 0.1 mM EDTA, 24 mM magnesium chloride, 1 mM DTT, 25 mM PNPP, 0.05% Triton×100, 11 μM ATP, and 0.5 μCi γ-^32P ATP in water is added and the reaction is allowed to proceed for 1 hour at room temperature. The c-Jun phosphorylation is terminated by addition of 150 μL of 12.5% trichloroacetic acid. After 30 minutes, the precipitate is harvested onto a filter plate, diluted with 50 μL of the scintillation fluid and quantified by a counter. The IC50 values are calculated as the concentration of the test compound at which the c-Jun phosphorylation is reduced to 50% of the control value.

T1 sequence (P45984 whole entry): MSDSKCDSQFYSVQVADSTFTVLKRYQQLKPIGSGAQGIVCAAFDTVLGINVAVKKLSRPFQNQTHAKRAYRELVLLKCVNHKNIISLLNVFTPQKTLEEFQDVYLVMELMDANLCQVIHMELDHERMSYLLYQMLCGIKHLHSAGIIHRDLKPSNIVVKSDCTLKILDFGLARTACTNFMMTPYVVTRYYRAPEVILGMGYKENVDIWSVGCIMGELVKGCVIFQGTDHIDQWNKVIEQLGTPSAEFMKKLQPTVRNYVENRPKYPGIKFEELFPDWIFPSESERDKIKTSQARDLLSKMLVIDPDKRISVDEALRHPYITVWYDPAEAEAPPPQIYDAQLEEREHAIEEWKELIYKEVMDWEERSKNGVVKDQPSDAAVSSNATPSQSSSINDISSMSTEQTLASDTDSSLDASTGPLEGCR

| Structure (SMILES) | IC50 |
| --- | --- |
| Cc1noc(C)c1C(=O)NC1CCN(C(=O)c2ccc(Nc3nccc(-c4ccc(Cl)cc4)n3)cc2)CC1 [Compound 20-2] | ≤ 10 µM |
| CN(C)c1ccc(-c2ccnc(Nc3ccc(C(N)=O)cc3)n2)cn1 [Compound 3-25] | ≤ 1 µM |
| O=C(c1ccc(Nc2nccc(-c3ccc(Cl)cc3)n2)cc1)N1CCN(c2ccc([N+](=O)[O-])cc2)CC1 [Compound 17-136] | ≤ 10 µM |
| CN(C)CCNC1CCN(C(=O)c2ccc(Nc3nccc(-c4ccc(Cl)cc4)n3)cc2)CC1 [Compound 22-10] | ≤ 1 µM |
| CCN(CC)C(=O)C1CCCN(C(=O)c2ccc(Nc3nccc(-c4ccc(Cl)cc4)n3)cc2)C1 (centres unmarked) [Compound 17-130] | ≤ 10 µM |
| O=C(NCCCN1CCCC1=O)c1ccc(Nc2nccc(-c3ccc(Cl)cc3)n2)cc1 [Compound 17-54] | ≤ 10 µM |
| CN1CCN(CCCNC(=O)c2ccc(Nc3nccc(-c4ccc(Cl)cc4)n3)cc2)CC1 [Compound 17-164] | ≤ 10 µM |
| O=C(c1ccc(Nc2nccc(-c3ccc(S(=O)(=O)c4ccncc4)cc3)n2)cc1)N1CCN(C(=O)c2ccco2)CC1 [Compound 17-30] | ≤ 1 µM |
| CCOc1ccc(-c2ccnc(Nc3ccc(C(N)=O)cc3)n2)cn1 [Compound 3-23] | ≤ 1 µM |
| CCN1CCN(C(=O)c2ccc(Nc3nccc(-c4ccc(Cl)cc4)n3)cc2)CC1 [Compound 17-35] | ≤ 10 µM |
| NC(=O)c1ccc(Nc2nccc(-c3ccc(Br)cc3)n2)cc1 [Compound 3-22] | ≤ 10 µM |
| NC(=O)c1ccc(Nc2nccc(-c3ccc(-n4ccnc4)cc3)n2)cc1 [Compound 3-36] | ≤ 10 µM |
| CC(C)NC(=O)CN1CCN(C(=O)c2ccc(Nc3nccc(-c4ccc(SCCCO)cc4)n3)cc2)CC1 [Compound 17-32] | ≤ 1 µM |
| O=C(c1ccc(Nc2nccc(-c3ccc(Cl)cc3)n2)cc1)N1CCN(c2cccc(C(F)(F)F)c2)CC1 [Compound 17-143] | ≤ 10 µM |
| CC(=O)N1CCN(C(=O)c2ccc(Nc3nccc(-c4ccc(S(=O)(=O)c5ccncc5)cc4)n3)cc2)CC1 [Compound 17-29] | ≤ 1 µM |
| CN(C)CCN(Cc1ccccc1)C(=O)c1ccc(Nc2nccc(-c3ccc(Cl)cc3)n2)cc1 [Compound 17-150] | ≤ 10 µM |
| CCN(Cc1ccncc1)C(=O)c1ccc(Nc2nccc(-c3ccc(Cl)cc3)n2)cc1 [Compound 17-147] | ≤ 1 µM |
| O=C(NCCc1ccccn1)c1ccc(Nc2nccc(-c3ccc(Cl)cc3)n2)cc1 [Compound 17-118] | ≤ 10 µM |
| O=CN1CCN(C(=O)c2ccc(Nc3nccc(-c4ccc(Cl)cc4)n3)cc2)CC1 [Compound 17-131] | ≤ 10 µM |

| Structure (SMILES) | IC50 |
| --- | --- |
| O=C(NC1CCN(C(=O)c2ccc(Nc3nccc(-c4ccc(Cl)cc4)n3)cc2)CC1)c1cccs1 [Compound 20-3] | ≤ 1 µM |
| NC(=O)c1ccc(Nc2nccc(-c3ccc(S(=O)(=O)CCCO)cc3)n2)cc1 [Compound 3-15] | ≤ 1 µM |
| COC(=O)CNC(=O)c1ccc(Nc2nccc(-c3ccc(Cl)cc3)n2)cc1 [Compound 17-91] | ≤ 10 µM |
| O=C(c1ccc(Nc2nccc(-c3ccc(Cl)cc3)n2)cc1)N1CCC(NCCO)CC1 [Compound 22-11] | ≤ 1 µM |
| CCOC(=O)N1CCN(C(=O)c2ccc(Nc3nccc(-c4ccc(Cl)cc4)n3)cc2)CC1 [Compound 17-137] | ≤ 1 µM |
| NC(=O)c1ccc(Nc2nccc(-c3ccc(SCCCO)cc3)n2)cc1 [Compound 3-14] | ≤ 1 µM |
| O=C(NCCCN1CCOCC1)c1ccc(Nc2nccc(-c3ccc(Cl)cc3)n2)cc1 [Compound 17-86] | ≤ 10 µM |
| O=C(Nc1nc2ccccc2[nH]1)c1ccc(Nc2nccc(-c3ccc(Cl)cc3)n2)cc1 [Compound 17-121] | ≤ 10 µM |
| CN1CCCC1CCNC(=O)c1ccc(Nc2nccc(-c3ccc(Cl)cc3)n2)cc1 (centres unmarked) [Compound 17-152] | ≤ 10 µM |
| O=C(c1ccc(Nc2nccc(-c3ccc(Cl)cc3)n2)cc1)N1CCN(CCO)CC1 [Compound 17-215] | ≤ 10 µM |
| NC(=O)c1ccc(Nc2nccc(-c3ccc(S(=O)(=O)c4cccnc4)cc3)n2)cc1 [Compound 3-13] | ≤ 1 µM |
| NC(=O)c1ccc(Nc2nccc(-c3ccc(C(=O)O)cc3)n2)cc1 [Compound 3-40] | ≤ 1 µM |
| O=C(c1ccc(Nc2nccc(-c3ccc(Cl)cc3)n2)cc1)N1CCC(O)CC1 [Compound 17-20] | ≤ 1 µM |
| CCN(C(C)=O)C1CCN(C(=O)c2ccc(Nc3nccc(-c4ccc(Cl)cc4)n3)cc2)C1 (centres unmarked) [Compound 17-162] | ≤ 10 µM |
| O=C(c1ccc(Nc2nccc(-c3ccc(Cl)cc3)n2)cc1)N1CCC(N2CCCC2)CC1 [Compound 17-171] | ≤ 1 µM |
| CC(O)CNC(=O)c1ccc(Nc2nccc(-c3ccc(Cl)cc3)n2)cc1 (centres unmarked) [Compound 17-26] | ≤ 10 µM |
| CC(=O)N1CCCN(C(=O)c2ccc(Nc3nccc(-c4ccc(Cl)cc4)n3)cc2)CC1 [Compound 17-160] | ≤ 10 µM |
| CC(=O)N(C)C1CCN(C(=O)c2ccc(Nc3nccc(-c4ccc(Cl)cc4)n3)cc2)C1 (centres unmarked) [Compound 17-163] | ≤ 10 µM |
| NC(=O)c1ccc(Nc2nccc(-c3ccc(S(=O)(=O)c4ccccn4)cc3)n2)cc1 [Compound 3-9] | ≤ 1 µM |

| Structure (SMILES) | IC50 |
| --- | --- |
| CNC(=O)c1ccc(Nc2nccc(-c3ccc(Cl)cc3)n2)cc1 [Compound 17-3] | ≤ 10 µM |
| CN(Cc1ccccc1)C(=O)c1ccc(Nc2nccc(-c3ccc(Cl)cc3)n2)cc1 [Compound 17-157] | ≤ 10 µM |
| COc1ccc(-c2ccnc(Nc3ccc(C(N)=O)cc3)n2)cn1 [Compound 3-24] | ≤ 1 µM |
| CN(C)C(=O)c1ccc(Nc2nccc(-c3ccc(SCCCO)cc3)n2)cc1 [Compound 17-31] | ≤ 1 µM |
| O=C(c1ccc(Nc2nccc(-c3ccc(Cl)cc3)n2)cc1)N1CCN(c2ccc(F)cc2)CC1 [Compound 17-149] | ≤ 10 µM |
| O=C(c1ccc(Nc2nccc(-c3ccc(Cl)cc3)n2)cc1)N1CCC[C@@H]1CO [Compound 17-27] | ≤ 10 µM |
| COCCNC(=O)c1ccc(Nc2nccc(-c3ccc(Cl)cc3)n2)cc1 [Compound 17-24] | ≤ 1 µM |
| CN(C)CCCNC(=O)c1ccc(Nc2nccc(-c3ccc(Cl)cc3)n2)cc1 [Compound 17-154] | ≤ 1 µM |
| O=C(NCCCO)c1ccc(Nc2nccc(-c3ccc(Cl)cc3)n2)cc1 [Compound 17-25] | ≤ 10 µM |
| COCC(=O)NC1CCN(C(=O)c2ccc(Nc3nccc(-c4ccc(Cl)cc4)n3)cc2)CC1 [Compound 20-6] | ≤ 10 µM |
| CN1CCN(CCCSc2ccc(-c3ccnc(Nc4ccc(C(N)=O)cc4)n3)cc2)CC1 [Compound 3-12] | ≤ 10 µM |
| CC(C)NC(=O)CN1CCN(C(=O)c2ccc(Nc3nccc(-c4ccc(Cl)cc4)n3)cc2)CC1 [Compound 17-141] | ≤ 1 µM |
| O=C(c1ccc(Nc2nccc(-c3ccc(SCCCO)cc3)n2)cc1)N1CCN(C(=O)c2ccco2)CC1 [Compound 17-34] | ≤ 1 µM |
| NC(=O)c1ccc(Nc2nccc(-c3ccc([N+](=O)[O-])cc3)n2)cc1 [Compound 3-27] | ≤ 10 µM |
| CN(CCc1ccccn1)C(=O)c1ccc(Nc2nccc(-c3ccc(Cl)cc3)n2)cc1 [Compound 17-151] | ≤ 10 µM |
| CCN(CC)CCCNC(=O)c1ccc(Nc2nccc(-c3ccc(Cl)cc3)n2)cc1 [Compound 17-153] | ≤ 10 µM |
| CC(=O)N1CCN(C(=O)c2ccc(Nc3nccc(-c4ccc(Cl)cc4)n3)cc2)CC1 [Compound 17-129] | ≤ 1 µM |
| O=C(c1ccc(Nc2nccc(-c3ccc(Cl)cc3)n2)cc1)N1CCN(c2ccccc2)CC1 [Compound 17-158] | ≤ 10 µM |
